Measurements from ChEMBL document CHEMBL1201862, “PubChem BioAssay data set” (2004).
Activity calls are given as the source filed them. Numbered stars: 1 amine (or outer) side, 2 acyl side, 3 side chain; on linkers, the order of the positions; unused ones are H or OH. Square brackets hold non-standard residues; d marks the D form. Peptide text beside a SMILES is read from it. ξ: configuration not given here. ξR = N=C(N)NCCCC(N)C(=O)O; ξF = NC(Cc1ccccc1)C(=O)O; CO = O=C([*:1])[*:2]

Key:
[1] = target: Cytochrome P450 2C19 (Homo sapiens, UniProt P33261); assay: Cytochrome panel assay with activity outcomes. Panel member name: p450-cyp2c19 Compounds with AC50 equal or less than 10 uM are considered active; assay type: functional; settings: read-out: AC50
[2] = target: T1, Cytochrome P450 1A2 (Homo sapiens, UniProt P05177)
T1 sequence (P05177 whole entry): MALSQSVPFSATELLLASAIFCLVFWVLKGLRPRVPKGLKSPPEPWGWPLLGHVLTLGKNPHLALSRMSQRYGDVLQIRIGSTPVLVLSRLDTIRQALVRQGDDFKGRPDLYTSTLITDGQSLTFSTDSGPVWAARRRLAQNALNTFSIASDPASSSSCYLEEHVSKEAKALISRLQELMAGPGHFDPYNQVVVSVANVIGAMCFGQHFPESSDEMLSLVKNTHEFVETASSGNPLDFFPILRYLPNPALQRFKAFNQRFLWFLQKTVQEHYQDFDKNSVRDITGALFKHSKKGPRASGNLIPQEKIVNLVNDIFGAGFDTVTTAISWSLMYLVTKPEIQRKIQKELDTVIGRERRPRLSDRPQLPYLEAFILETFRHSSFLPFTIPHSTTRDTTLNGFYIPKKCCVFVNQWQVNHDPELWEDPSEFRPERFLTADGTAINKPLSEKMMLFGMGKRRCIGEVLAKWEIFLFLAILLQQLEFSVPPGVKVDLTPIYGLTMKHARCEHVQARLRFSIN

[3] = target: T2, Cytochrome P450 2C9 (Homo sapiens, UniProt P11712)
[4] = target: T3, Short transient receptor potential channel 4 (Mus musculus, UniProt Q9QUQ5); assay: mouse TRPC4 channel activators, dose response, cell-based, HEK293 TRPC4/mu-opioid, Fluo-4 calcium (AID 434937); assay type: functional
T3 sequence (Q9QUQ5 whole entry): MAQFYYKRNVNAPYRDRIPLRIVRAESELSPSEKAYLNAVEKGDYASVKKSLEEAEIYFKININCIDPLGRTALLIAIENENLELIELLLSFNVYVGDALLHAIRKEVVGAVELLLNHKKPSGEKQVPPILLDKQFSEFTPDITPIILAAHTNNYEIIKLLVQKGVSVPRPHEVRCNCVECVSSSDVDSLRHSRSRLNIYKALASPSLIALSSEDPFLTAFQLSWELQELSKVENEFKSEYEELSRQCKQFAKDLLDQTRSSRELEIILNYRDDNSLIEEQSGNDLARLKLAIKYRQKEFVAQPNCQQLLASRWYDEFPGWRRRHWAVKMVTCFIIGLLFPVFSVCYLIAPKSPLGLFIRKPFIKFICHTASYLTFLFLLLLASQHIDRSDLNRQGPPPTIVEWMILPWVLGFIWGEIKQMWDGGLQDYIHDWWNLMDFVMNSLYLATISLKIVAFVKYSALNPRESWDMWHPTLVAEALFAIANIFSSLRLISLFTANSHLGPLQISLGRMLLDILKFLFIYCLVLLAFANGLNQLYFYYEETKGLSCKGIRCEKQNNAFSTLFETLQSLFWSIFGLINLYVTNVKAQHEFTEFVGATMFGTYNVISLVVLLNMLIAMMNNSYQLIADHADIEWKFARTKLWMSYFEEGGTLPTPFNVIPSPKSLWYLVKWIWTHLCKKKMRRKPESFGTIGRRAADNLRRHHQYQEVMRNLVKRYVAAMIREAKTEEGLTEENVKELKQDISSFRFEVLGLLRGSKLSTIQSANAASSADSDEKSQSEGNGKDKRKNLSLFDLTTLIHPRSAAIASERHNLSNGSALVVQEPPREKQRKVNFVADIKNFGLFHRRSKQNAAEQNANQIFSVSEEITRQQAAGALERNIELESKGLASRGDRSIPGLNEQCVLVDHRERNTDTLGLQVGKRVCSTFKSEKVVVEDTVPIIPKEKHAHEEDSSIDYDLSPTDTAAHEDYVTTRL

[5] = target: T4, Coagulation factor XII (Homo sapiens, UniProt P00748); assay type: functional;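 note: activated factor XIIa alpha cleaving a fluorogenic AMC peptide substrate; inhibitor potency from loss of enzyme activity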
T4 sequence (P00748 whole entry): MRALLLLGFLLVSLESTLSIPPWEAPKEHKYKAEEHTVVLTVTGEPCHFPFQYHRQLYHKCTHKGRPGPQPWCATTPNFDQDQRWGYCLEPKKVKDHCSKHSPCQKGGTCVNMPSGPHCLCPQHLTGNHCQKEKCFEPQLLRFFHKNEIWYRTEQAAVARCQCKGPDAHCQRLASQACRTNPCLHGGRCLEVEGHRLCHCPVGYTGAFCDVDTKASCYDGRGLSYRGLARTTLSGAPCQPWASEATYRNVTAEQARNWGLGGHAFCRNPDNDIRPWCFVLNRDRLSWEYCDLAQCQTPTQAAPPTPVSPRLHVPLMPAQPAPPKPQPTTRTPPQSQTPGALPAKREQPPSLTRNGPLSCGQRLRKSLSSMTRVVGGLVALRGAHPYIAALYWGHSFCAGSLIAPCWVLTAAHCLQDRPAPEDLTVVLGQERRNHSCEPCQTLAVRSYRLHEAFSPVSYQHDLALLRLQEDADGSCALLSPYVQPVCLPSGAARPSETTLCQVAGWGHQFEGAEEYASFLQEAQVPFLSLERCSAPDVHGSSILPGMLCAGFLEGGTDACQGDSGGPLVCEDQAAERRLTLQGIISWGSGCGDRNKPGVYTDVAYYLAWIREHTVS

[6] = target: Beta-galactosidase (Escherichia coli, UniProt Q8VNN2); assay: PubChem AID 485352; assay type: functional
[7] = target: T5, Type-1 angiotensin II receptor (Homo sapiens, UniProt P30556); assay: AT1 receptor antagonists, dose response, selectivity assay for APJ receptor antagonist project, cell-based, uHTS hits (AID 463214); assay type: functional;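 note: antagonist potency against angiotensin II stimulated AT1 response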
T5 sequence (P30556 whole entry): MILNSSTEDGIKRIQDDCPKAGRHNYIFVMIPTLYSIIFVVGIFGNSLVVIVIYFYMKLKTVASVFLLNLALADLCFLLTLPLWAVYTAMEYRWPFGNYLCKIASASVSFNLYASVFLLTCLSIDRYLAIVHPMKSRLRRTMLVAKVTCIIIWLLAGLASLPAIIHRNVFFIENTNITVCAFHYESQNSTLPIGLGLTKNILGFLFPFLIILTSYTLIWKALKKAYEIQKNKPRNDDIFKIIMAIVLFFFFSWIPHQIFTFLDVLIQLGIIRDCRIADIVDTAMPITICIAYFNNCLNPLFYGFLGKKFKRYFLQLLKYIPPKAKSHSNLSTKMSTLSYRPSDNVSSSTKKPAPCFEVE

[8] = target: T6, Latent membrane protein 1 (Human herpesvirus 4 (strain B95-8), UniProt P03230); assay: TES1-eGFP NF-kB reporter inhibition versus Tet-On dsRED, dose response, selectivity assay for LMP1 NF-kB inhibitor project, imaging, HEK293T, dual-color eGFP/dsRED, cherry-picks (AID 588398); assay type: functional, cell-based
T6 sequence (P03230 whole entry): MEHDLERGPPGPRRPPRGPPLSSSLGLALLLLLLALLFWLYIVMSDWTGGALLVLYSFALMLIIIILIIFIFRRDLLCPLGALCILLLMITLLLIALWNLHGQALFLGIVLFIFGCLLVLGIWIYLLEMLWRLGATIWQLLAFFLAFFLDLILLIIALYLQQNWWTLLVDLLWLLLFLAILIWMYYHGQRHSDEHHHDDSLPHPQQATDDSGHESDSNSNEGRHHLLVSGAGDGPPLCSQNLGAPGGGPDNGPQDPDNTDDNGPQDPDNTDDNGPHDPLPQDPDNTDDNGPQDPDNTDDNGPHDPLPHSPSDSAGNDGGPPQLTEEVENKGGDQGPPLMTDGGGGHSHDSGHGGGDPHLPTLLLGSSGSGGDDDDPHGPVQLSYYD

[9] = test system: Escherichia coli; assay: microbe, parasite or virus in culture
[10] = target: T3, Short transient receptor potential channel 4; assay: mouse TRPC4 channel inhibitors, dose response, cell-based, HEK293 TRPC4/mu-opioid, Fluo-4 calcium (AID 434942); assay type: functional;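 note: potency of inhibitors blocking the TRPC4 calcium response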
[11] = test system: Vero; assay: cells; assay type: functional, cell-based; settings: Chlorocebus sabaeus
[12] = test system: HEK293; assay: inhibitors of LMP1-driven NF-kB reporter, dose response, cell-based, HEK293, luciferase, cherry-pick (AID 588343); assay type: functional; settings: Homo sapiens
[13] = Luminescence Cell-Based Dose Retest to Confirm Inhibitors of Cancer Stem Cells. [Related pubchem assays (depositor defined):AID2717, AID2721]; assay type: functional; settings: Homo sapiens
[14] = inhibitors of firefly luciferase expression or activity, dose response, H4 neuroglioma cells, luminescence (AID 1990); assay type: functional, cell-based
[15] = Luminescence Cell-Based Dose Response HTS to Identify Inhibitors of 5'UTR Stem-Loop Driven Prion Protein mRNA Translation in H4 Neuroglioblastoma Cells. [Related pubchem assays: 1827 (Project Summary), 1813 (Primary HTS)]; assay type: functional
[16] = inhibitors of SNCA 5'UTR-driven reporter translation, confirmation, H4 neuroglioma cells, luminescence (AID 1988); assay type: functional, cell-based
[17] = target: T2, Cytochrome P450 2C9; remark: listed apart in the source

Sequence of Beta-galactosidase (Q8VNN2 whole entry): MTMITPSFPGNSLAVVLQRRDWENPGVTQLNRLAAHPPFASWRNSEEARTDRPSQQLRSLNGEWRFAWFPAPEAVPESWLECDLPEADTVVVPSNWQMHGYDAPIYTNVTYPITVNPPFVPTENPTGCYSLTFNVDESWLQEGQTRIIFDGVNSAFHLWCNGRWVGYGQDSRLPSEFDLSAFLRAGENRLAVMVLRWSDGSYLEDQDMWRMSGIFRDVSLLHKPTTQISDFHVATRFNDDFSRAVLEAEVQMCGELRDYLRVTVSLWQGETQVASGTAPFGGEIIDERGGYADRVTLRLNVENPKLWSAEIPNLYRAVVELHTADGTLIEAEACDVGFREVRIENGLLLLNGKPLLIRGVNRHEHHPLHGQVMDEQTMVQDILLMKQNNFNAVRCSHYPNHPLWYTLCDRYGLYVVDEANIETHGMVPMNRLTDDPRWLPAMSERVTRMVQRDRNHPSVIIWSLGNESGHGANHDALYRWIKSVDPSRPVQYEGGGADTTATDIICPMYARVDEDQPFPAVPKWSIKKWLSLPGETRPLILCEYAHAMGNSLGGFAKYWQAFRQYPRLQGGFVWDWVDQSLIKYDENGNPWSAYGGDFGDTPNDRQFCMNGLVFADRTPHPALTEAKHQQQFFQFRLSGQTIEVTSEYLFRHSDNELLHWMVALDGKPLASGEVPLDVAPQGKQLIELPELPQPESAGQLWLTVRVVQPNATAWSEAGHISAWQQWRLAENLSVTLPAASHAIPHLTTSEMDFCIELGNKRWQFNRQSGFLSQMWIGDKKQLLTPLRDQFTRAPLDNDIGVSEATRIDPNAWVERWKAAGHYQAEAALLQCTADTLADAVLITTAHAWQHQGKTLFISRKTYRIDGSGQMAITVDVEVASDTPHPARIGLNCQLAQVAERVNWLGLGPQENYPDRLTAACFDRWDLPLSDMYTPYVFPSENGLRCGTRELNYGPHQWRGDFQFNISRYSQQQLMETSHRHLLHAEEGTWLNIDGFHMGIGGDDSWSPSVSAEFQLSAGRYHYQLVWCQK
T2 sequence (P11712 whole entry): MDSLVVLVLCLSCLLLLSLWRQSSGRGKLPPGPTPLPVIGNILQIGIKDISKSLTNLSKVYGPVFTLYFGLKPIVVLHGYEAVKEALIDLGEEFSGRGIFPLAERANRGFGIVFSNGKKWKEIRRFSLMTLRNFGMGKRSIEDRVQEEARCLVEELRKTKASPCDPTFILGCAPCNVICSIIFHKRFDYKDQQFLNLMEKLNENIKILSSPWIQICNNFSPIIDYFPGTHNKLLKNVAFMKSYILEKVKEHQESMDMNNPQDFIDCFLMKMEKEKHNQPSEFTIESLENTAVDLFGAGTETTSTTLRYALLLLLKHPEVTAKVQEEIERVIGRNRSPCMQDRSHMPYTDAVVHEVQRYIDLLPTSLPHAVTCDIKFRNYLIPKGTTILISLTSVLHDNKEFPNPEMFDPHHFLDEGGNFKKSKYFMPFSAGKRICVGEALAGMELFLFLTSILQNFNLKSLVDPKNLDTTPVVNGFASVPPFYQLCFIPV
Sequence of Cytochrome P450 2C19 (P33261 whole entry): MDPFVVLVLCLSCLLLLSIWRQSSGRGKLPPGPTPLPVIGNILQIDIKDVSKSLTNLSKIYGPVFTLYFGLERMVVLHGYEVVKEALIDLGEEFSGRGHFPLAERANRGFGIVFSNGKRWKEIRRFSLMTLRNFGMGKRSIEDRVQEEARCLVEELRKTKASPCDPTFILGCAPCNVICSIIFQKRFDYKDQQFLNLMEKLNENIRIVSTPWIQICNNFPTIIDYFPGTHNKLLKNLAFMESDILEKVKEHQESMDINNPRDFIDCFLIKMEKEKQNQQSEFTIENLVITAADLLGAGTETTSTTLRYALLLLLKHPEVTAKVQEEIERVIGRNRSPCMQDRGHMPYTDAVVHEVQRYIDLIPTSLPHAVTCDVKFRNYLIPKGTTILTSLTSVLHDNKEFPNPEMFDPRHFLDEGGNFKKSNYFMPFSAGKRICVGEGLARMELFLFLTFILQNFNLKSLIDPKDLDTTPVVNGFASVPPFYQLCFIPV

## Cc1ccc(C(=O)NC2CCCCC2)cc1
[1]
  AC50: 25.1 µM (inconclusive)
[2]
  AC50: 22.4 µM (inconclusive)
[3]
  AC50: inconclusive

## CCC(=O)NC(C)C(c1cccs1)N1CCN(c2ccccc2)CC1 (configuration not stated)
[4]
  EC50: 0.421 µM (active)

## O=C(NC1CCCc2ccccc21)c1ccc(O)nc1 (configuration not stated)
[3]
  AC50: inconclusive

## CC(C)(C)C(=O)N1N=C(Nc2ccccc2)SC1(C)C
[5]
  IC50: > 50 µM (inactive)

## O=C(c1ccco1)C(O)c1ccco1 (configuration not stated)
[6]
  EC50: > 40 µM (inactive)
[7]
  IC50: 35.2 µM (not active)

## COc1cc(OC)cc(C(=O)N[C@H](C(=O)OCC(=O)c2ccc(C)c([N+](=O)[O-])c2)C(C)C)c1
[6]
  EC50: > 40 µM (inactive)
[7]
  IC50: > 40 µM (not active)
[8]
  AC50: 42.8 µM (active)

## CC(=O)NC(Cc1c[nH]cn1)C(=O)O (configuration not stated)
[9]
  AC50: 29.2 µM (active)

## Cn1c(-c2ccccc2)cnc1SCC(N)=O
[5]
  IC50: > 50 µM (inactive)

## OC1(c2cccs2)C[N+](c2ccc(Cl)cc2)=C2CCCCN21 (configuration not stated)
[10]
  EC50: 2.66 µM (active)
[11]
  IC50: 8.4 µM (active)

## CC(C)[C@H](NC(=O)[C@H](CCCN=C(N)N)NC(=O)NC(Cc1ccccc1)C(=O)O)C(=O)NC(C=O)CCCN=C(N)N (stereo partly drawn) ({ξF-CO}-Arg-Val-[ξR]-aldehyde)
[5]
  IC50: 5.87 µM (active)

## COc1cc2c(=O)n(CC3CCCO3)c(=O)n(CC(=O)Nc3cccc(Cl)c3)c2cc1OC (configuration not stated)
[12]
  AC50: 84.3 µM (active)
[8]
  AC50: 277 µM (active)

## O=C(CN1C(=O)C2C3CC(C(Br)C3Br)C2C1=O)OCC(=O)c1cccc([N+](=O)[O-])c1 (configuration not stated)
[6]
  EC50: > 40 µM (inactive)
[7]
  IC50: 20.4 µM (not active)

## COc1ccccc1NC(=O)CSc1nnnn1C
[5]
  IC50: > 50 µM (inactive)

## CN1CCN(/N=C/c2ccc(N(c3ccccc3)c3ccccc3)cc2)CC1
[13]
  AC50: 5.11 µM (active)
[12]
  AC50: 0.907 µM (active)
[8]
  AC50: 0.147 µM (active)

## COc1ccc(C)c(NC(=O)NCCc2c[nH]cn2)c1
[4]
  EC50: 1.88 µM (active)

## Cn1c(C(N)=O)cnc1Sc1ncc(C(F)(F)F)cc1Cl
[2]
  AC50: 28.2 µM (inconclusive)
[3]
  AC50: inconclusive

## CC(C)(C)OC(=O)[C@H](Cc1ccccc1)NC(=O)c1[nH]cnc1C(=O)N1CCN(C(=O)OC(C)(C)C)CC1
[14]
  EC50: 61.6 µM (active)
[15]
  EC50: 20 µM (active)
[16]
  EC50: 26.6 µM (active)
[11]
  IC50: 18.3 µM (active)

## NC(=O)c1nn(-c2ccccc2)c(=O)cc1O
[3]
  AC50: inconclusive

## Oc1c2nc3cccc(Cl)c3c-2ncn1CCN1CCCCC1
[5]
  IC50: > 50 µM (inactive)

## Cn1c(N)c(C(=O)COC(=O)CCCN2C(=O)c3ccccc3C2=O)c(=O)n(C)c1=O
[9]
  AC50: 31.9 µM (active)

## Cc1ccc2c(c1)nnn2C1CCN(CC(=O)N2c3ccccc3CC2C)CC1 (configuration not stated)
[14]
  EC50: > 120 µM (not active)
[15]
  EC50: > 120 µM (not active)
[16]
  EC50: 81.6 µM (active)
[2]
  AC50: 6.31 µM (inconclusive)
[3]
  AC50: inconclusive

## Cc1noc(C)c1C(=O)NNc1ccc(C(C)C)cc1
[6]
  EC50: > 40 µM (inactive)
[7]
  IC50: 3.68 µM (active)

## Cc1ccc(NC(S)=NCCC2=CCCCC2)cc1
[9]
  AC50: 115 µM (active)

## O=C1/C(=C/c2cccnc2)SC(=S)N1Cc1ccco1
[12]
  AC50: 0.758 µM (active)
[8]
  AC50: 39.5 µM (active)
[17]
  AC50: 6.31 µM (inconclusive)

## O=C(N/N=C/c1cccnc1)c1ccccc1OCc1ccc(Cl)cc1
[10]
  EC50: 1.5 µM (active)
[4]
  EC50: 3.35 µM (active)
